Laboratory results as given in patent US10336720B2, “Cyclic carbonate monomer containing double iodine, biodegradable polymer prepared thereby and use” (SOOCHOW UNIVERSITY, priority 2015, dated 2019).
Counter-ions that a name gives are not always drawn.

Key:
[1] = Blood circulation of drug-loaded vesicles; conditions: nude Balb/C, mouse, whole blood, intravenous, 10 mg/kg
Experimental: The blood samples (approximately 10 μL) were collected at time points of 0, 0.25, 0.5, 1, 2, 4, 8, 12 and 24 h. The exact weight of the blood was determined through weighing by difference method, then 100 μL Triton (concentration: 1%) and 500 μL DMF (which contained 20 mM DTT, 1 M HCl) were added. The sample was subjected to extraction, followed by centrifugation (20,000 rpm, 20 min).

[2] = Maximum tolerated dose (MTD); conditions: nude Balb/C, mouse, in vivo
Excerpt: Nude Balb/C mice with body weight of about 18-20 g, aged 4-6 weeks were used. […] The standard for MTD was non accidental death in mice or weight less than 15% in mice.

B16 tumor = assay: Antitumor effect and weight change in mice bearing B16 tumor; type: in vivo, Nude Balb/C mice
Excerpt: After 2 weeks, when the size of the tumors was 30-50 mm^3, the experiment began. […] From Day 0 to 18, the body weight of the mice in each group was weighed every two days. The size of the tumor was precisely measured with Vernier scale, where the method for calculating the volume of tumors was: V=(L×W×H)/2, (where L was the length of the tumor, W was the width of the tumor, H was the thickness of the tumor). The survival of the mice was observed continuously till the 45th day.

tumor site = assay: CT imaging of nano-vesicles in mice (Example 20); type: in vivo; conditions: tail vein, circulation after 40 minutes
Experimental: By the changing CT value in FIG. 10 can be seen, after a 4 hour cycle, CT change of cRGD20/CLPs was the highest, followed by CLPs, and lowest in the control group, after 7 hours of circulation, CT value of cRGD20/CLPs is 2 times and 10 times than the other two groups.

Row | contrast signal in the bladder (tumor site) | SMILES | half-life [1] | MTD at 10 days [2] | tumor growth (B16 tumor; DOX.HCl 10 mg/kg at 0, 4, 8, 12 day, 19-day treatment) | body weight decrease (B16 tumor; in 7 days, DOX.HCl 10 mg/kg)
1 |  | COc1cccc2c1C(=O)c1c(O)c3c(c(O)c1C2=O)C[C@@](O)(C(=O)CO)C[C@@H]3O[C@H]1C[C@H](N)[C@H](O)[C@H](C)O1 [DOX.HCl, doxorubicin hydrochloride] | 7.8 min | < 10 mg/kg | may also inhibit tumor expansion | 20%
2 | contrast strong signal | CC(=O)N(CC(O)CO)c1c(I)c(C(=O)NCC(O)CO)c(I)c(C(=O)NCC(O)CO)c1I (centres unmarked) [iohexol] |  |  |  | 
